Measurements as given in article PMC10223992, “In Silico-Motivated Discovery of Novel Potent Glycogen Synthase-3 Inhibitors: 1-(Alkyl/arylamino)-3H-naphtho[1,2,3-de]quinoline-2,7-dione Identified as a Scaffold for Kinase Inhibitor Development” (Pharmaceuticals, 2023).
Several values for one entry are separate records, joined by “and”; a condition that tells them apart may be missing. Equal entries are not always repeated.

Target: PKCγ (Homo sapiens, UniProt P05129)
Assay: kinase selectivity screening, PKCγ
Type: biochemical
Conditions: not given
Procedure: (§1) All predicted inhibitors for testing (except compound 3) were purchased from Vitas-M Laboratory, with purity ≥ 90%. Compound 3 was purchased from Biosynth Carbosynth with purity of 95%. Binding assay experiments against Homo sapiens GSK-3β were performed using a specialist service from the MRC Protein Phosphorylation & Ubiquitylation Unit at the University of Dundee (http://www.kinase-screen.mrc.ac.uk/ (accessed on 1 April 2023)). Initial assays underwent single concentration screening at 50 µM concentrations to determine those compounds showing the best inhibitory potential. Inhibitory activities were calculated based on maximal activities measured in the absence of an inhibitor. […] In the kinase selectivity panel screening for 14 and 19, the compounds were assayed at single concentration (50 μM) against CDK2, CDK5, CDK9, ERK1, ERK2, PKA, PKBβ, PKCα, PKCγ, GSK-3α, and GSK-3β. All binding assay experiments were performed in duplicate.
Compound CCCCNc1c2c3c(cccc3[nH]c1=O)C(=O)c1ccccc1-2 [Compound 19] has an IC50 of 11 ± 1.5 µM.

Target: ERK2 (Homo sapiens, UniProt P28482)
Sequence (P28482 whole entry, species assumed): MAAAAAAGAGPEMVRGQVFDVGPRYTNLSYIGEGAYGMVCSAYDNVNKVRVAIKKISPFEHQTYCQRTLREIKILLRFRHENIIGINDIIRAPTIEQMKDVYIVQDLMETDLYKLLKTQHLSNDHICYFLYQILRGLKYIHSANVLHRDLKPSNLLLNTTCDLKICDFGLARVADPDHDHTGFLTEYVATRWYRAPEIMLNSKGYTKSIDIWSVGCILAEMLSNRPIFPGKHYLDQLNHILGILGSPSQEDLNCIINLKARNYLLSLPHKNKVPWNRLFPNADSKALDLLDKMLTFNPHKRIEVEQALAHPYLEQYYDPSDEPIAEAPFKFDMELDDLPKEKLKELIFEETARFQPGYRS
Assay: kinase selectivity screening, ERK2
Type: biochemical
Conditions: not given
Procedure: as §1
Work on Cc1cc(C)cc(Nc2c3c4c(cccc4[nH]c2=O)C(=O)c2ccccc2-3)c1 [Compound 14] yielded an IC50 of 21.3 µM.

Target: GSK-3α (Homo sapiens, UniProt P49840)
Sequence (P49840 whole entry, species assumed): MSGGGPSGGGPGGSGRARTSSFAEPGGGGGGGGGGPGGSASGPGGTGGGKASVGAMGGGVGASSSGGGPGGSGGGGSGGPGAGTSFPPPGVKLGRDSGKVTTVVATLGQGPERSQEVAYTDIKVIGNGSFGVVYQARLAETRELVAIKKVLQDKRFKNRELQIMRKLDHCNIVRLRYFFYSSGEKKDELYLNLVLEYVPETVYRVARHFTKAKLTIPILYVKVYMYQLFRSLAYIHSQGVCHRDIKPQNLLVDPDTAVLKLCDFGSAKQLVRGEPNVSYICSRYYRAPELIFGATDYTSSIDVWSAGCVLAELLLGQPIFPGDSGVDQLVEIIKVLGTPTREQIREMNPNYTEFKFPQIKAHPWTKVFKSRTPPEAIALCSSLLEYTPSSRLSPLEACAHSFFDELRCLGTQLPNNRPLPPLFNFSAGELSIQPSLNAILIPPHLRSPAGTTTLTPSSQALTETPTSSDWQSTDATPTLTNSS
Assay: kinase selectivity screening, GSK-3α
Type: biochemical
Conditions: not given
Procedure: as §1
Work on Cc1cc(C)cc(Nc2c3c4c(cccc4[nH]c2=O)C(=O)c2ccccc2-3)c1 [Compound 14] yielded an IC50 of 2.3 ± 0.4 µM. CCCCNc1c2c3c(cccc3[nH]c1=O)C(=O)c1ccccc1-2 [Compound 19] showed an IC50 of 1.7 ± 0.1 µM.

Same assay, conditions: single-dose profiling 50 μM
With Cc1cc(C)cc(Nc2c3c4c(cccc4[nH]c2=O)C(=O)c2ccccc2-3)c1 [Compound 14] the “% remaining activity (GSK-3α)” value was < 50%. In the case of CCCCNc1c2c3c(cccc3[nH]c1=O)C(=O)c1ccccc1-2 [Compound 19], the “% remaining activity (GSK-3α)” value is reported as < 50%.

Target: PKBβ (Homo sapiens, UniProt P31751)
Sequence (P31751 whole entry, species assumed): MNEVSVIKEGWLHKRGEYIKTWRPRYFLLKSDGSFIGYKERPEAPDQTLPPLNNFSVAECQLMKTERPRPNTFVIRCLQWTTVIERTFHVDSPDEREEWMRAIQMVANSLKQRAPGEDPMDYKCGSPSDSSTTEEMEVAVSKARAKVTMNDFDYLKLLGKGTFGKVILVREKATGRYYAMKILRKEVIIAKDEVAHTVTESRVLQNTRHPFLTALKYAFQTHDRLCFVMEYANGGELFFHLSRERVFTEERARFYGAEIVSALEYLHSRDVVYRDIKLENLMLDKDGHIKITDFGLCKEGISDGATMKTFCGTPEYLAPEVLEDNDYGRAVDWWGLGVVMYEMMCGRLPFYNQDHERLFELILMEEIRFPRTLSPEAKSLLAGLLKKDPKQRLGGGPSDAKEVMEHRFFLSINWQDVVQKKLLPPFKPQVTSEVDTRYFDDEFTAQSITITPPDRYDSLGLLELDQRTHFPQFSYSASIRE
Assay: kinase selectivity screening, PKBβ
Type: biochemical
Conditions: not given
Procedure: as §1
Work on Cc1cc(C)cc(Nc2c3c4c(cccc4[nH]c2=O)C(=O)c2ccccc2-3)c1 [Compound 14] yielded an IC50 of 14.9 ± 1.5 µM. For CCCCNc1c2c3c(cccc3[nH]c1=O)C(=O)c1ccccc1-2 [Compound 19], the IC50 was 24.6 ± 0.2 µM.

Target: T1, Homo sapiens GSK-3β (Homo sapiens, UniProt P49841)
T1 construct: purchased MRC Protein Phosphorylation & Ubiquitylation Unit, University of Dundee (screening service)
T1 sequence (P49841 whole entry): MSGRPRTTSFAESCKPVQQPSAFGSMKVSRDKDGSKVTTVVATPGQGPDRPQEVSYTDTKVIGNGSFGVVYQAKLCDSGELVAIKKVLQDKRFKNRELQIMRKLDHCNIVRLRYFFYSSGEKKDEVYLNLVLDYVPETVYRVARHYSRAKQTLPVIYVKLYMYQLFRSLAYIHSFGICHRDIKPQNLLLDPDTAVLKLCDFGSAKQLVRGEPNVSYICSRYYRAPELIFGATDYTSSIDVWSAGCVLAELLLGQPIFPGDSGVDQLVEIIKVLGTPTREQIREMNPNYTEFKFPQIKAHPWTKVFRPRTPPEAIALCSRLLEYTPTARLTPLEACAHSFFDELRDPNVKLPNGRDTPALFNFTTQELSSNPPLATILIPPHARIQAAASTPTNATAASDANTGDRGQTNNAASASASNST
Assay: in vitro GSK-3β binding assay (kinase inhibition, MRC PPU Dundee)
Type: biochemical
Conditions: in vitro binding assay, duplicate
Procedure: as §1
COc1ccc(Nc2c3c4c(cccc4[nH]c2=O)C(=O)c2ccccc2-3)cc1 [Compound 15] showed an IC50 of 11.4 ± 0.6 µM. Nc1ccc2ncnc3c2c1C(=O)c1ccccc1-3 [Compound 1, 6-amino-7H-benzo[e]perimidin-7-one] gave an IC50 of 1.63 ± 0.3 µM. For Cc1cc(C)cc(Nc2c3c4c(cccc4[nH]c2=O)C(=O)c2ccccc2-3)c1 [Compound 14], the IC50 was < 10 µM and 9.1 µM. For Nc1c2c3c(cccc3[nH]c1=O)C(=O)c1ccccc1-2 [Compound 22], the IC50 was 36.7 ± 5.7 µM. Compound COc1ccc(Nc2c3c4c(c(Br)ccc4n(C)c2=O)C(=O)c2ccccc2-3)cc1 [Compound 17] has an IC50 of 14 ± 3.1 µM. With O=C1c2ccccc2-c2c(Nc3ccccc3)c(O)nc3cccc1c23 [Compound 2, 1-(phenylamino)-3H-naphtho[1,2,3-de]quinoline-2,7-dione] the IC50 was 20.6 ± 3.8 µM. For CCCCNc1c2c3c(cccc3[nH]c1=O)C(=O)c1ccccc1-2 [Compound 19], the IC50 was < 10 µM and 4.9 µM. For Cn1c(=O)c(NCCO)c2c3c(cccc31)C(=O)c1ccccc1-2 [Compound 21], the IC50 was 17 ± 2.7 µM. With Cc1ccc(Nc2c3c4c(cccc4[nH]c2=O)C(=O)c2ccccc2-3)cc1 [Compound 13] the IC50 was < 10 µM and 9.4 µM. For COc1cccc2c1cc1c3c(cc4c(c32)OCO4)C(=O)N1 [Compound 3, 8-methoxy-[1,3]dioxolo[4′,5′:4,5]benzo[1,2,3-cd]benzo[f]indol-5(6H)-one], the IC50 was 63.7 ± 3.3 µM. O=C1c2ccccc2-c2c(NC3CCCCC3)c(=O)[nH]c3cccc1c23 [Compound 18] gave an IC50 of 25.3 ± 3.5 µM. COc1ccccc1Nc1c2c3c(cccc3n(C)c1=O)C(=O)c1ccccc1-2 [Compound 16] gave an IC50 of 27.1 ± 1.1 µM. COc1ccc([C@@H]2CC(=O)Nc3cccc4c3c2cn4Cc2ccccc2)c(OC)c1 [Compound 4, (R)-1-benzyl-3-(2,4-dimethoxyphenyl)-1,3,4,6-tetrahydro-5H-azepino[4,3,2-cd]indol-5-one] gave an IC50 of 87.5 ± 9.17 µM. For COCCCNc1c(O)nc2cccc3c2c1-c1ccccc1C3=O [Compound 20], the IC50 was < 10 µM and 9.1 µM.

Same assay, conditions: single concentration 50 µM
Work on O=C1N/C(=C/c2ccccc2)C(=O)N2Cc3ccccc3C[C@@H]12 [Compound 8, (S,E)-3-benzylidene-2,3,11,11a-tetrahydro-4H-pyrazino[1,2-b]isoquinoline-1,4(6H)-dione] yielded an inhibition at 50 µM of 10%. In the case of CN(C)CCn1cnc2c1c(=O)[nH]c(=O)n2Cc1ccccc1 [Compound 6, 3-benzyl-7-(2-(dimethylamino)ethyl)-3,7-dihydro-1H-purine-2,6-dione], the inhibition at 50 µM is reported as 11%. O=C1Nc2ccccc2C(=O)N2c3ccccc3C[C@@H]12 [Compound 5, (S)-12a,13-dihydro-6H-benzo[5,6][1,4]diazepino[1,2-a]indole-6,12(11H)-dione] gave an inhibition at 50 µM of 20%. In the case of COc1ccc(Cn2cnc3c([nH]c4ccccc43)c2=O)cc1OC [Compound 9, 3-(3,4-dimethoxybenzyl)-3,5-dihydro-4H-pyrimido[5,4-b]indol-4-one], the inhibition at 50 µM is reported as 9%. With O=C1Nc2cc(Cl)ccc2/C1=C/c1cccc2[nH]ccc12 [Compound 12, (Z)-3-((1H-indol-4-yl)methylene)-6-chloroindolin-2-one] the inhibition at 50 µM was < 0%. COc1cc2c(cc1OC)[C@@H](c1c(O)[nH]c(=O)n(-c3ccc(C)c(C)c3)c1=O)NCC2 [Compound 11, (S)-5-(6,7-dimethoxy-1,2,3,4-tetrahydroisoquinolin-1-yl)-3-(3,4-dimethylphenyl)-6-hydroxypyrimidine-2,4(1H,3H)-dione] showed an inhibition at 50 µM of 2%. Cc1coc2cc3oc(=O)c(CC(=O)N[C@H]4CCCc5c4[nH]c4ccccc54)c(C)c3cc12 [Compound 7, (S)-2-(3,5-dimethyl-7-oxo-7H-furo[3,2-g]chromen-6-yl)-N-(2,3,4,9-tetrahydro-1H-carbazol-1-yl)acetamide] showed an inhibition at 50 µM of 10%. Work on Cc1ccc2c(c1)[C@]1(N[C@@H]([C@@H](C)O)[C@H]3C(=O)N(Cc4ccc5c(c4)OCO5)C(=O)[C@H]31)C(=O)N2 [Compound 10, (3S,3′R,3a′S,6a′R)-5′-(benzo[d][1,3]dioxol-5-ylmethyl)-3′-((R)-1-hydroxyethyl)-5-methyl-2′,3′,3a′,6a′-tetrahydro-4′H-spiro[indoline-3,1′-pyrrolo[3,4-c]pyrrole]-2,4′,6′(5′H)-trione] yielded an inhibition at 50 µM of 6%.

Same assay, conditions: single-dose profiling 50 μM
With Cc1cc(C)cc(Nc2c3c4c(cccc4[nH]c2=O)C(=O)c2ccccc2-3)c1 [Compound 14] the “% remaining activity (GSK-3β)” value was < 50%. For CCCCNc1c2c3c(cccc3[nH]c1=O)C(=O)c1ccccc1-2 [Compound 19], the “% remaining activity (GSK-3β)” value was < 50%.

Tested on: GSK-3β
Assay: not given
Parameters: method as in ChEMBL database [53]
Conditions: Table S1, ChEMBL data; ref ChEMBL database [53]; read-out: IC50 (GSK-3β, known actives); cited from earlier work
In the case of O=C(CCl)c1scc(Br)c1Br [CHEMBL357136], the IC50 is listed as 0.5 µM. In the case of O=C(NC1CCNCC1)c1n[nH]cc1NC(=O)c1c(Cl)cccc1Cl [CHEMBL445813], the IC50 is listed as 0.2 µM. For O=C1Nc2ccccc2/C1=C/c1ccccn1 [CHEMBL2094331], the IC50 is listed as 0.00419 µM. For Cc1ccc(-c2c[nH]c(C3COCCN3Cc3c[nH]c4ccccc34)n2)cc1 (stereo not shown) [CHEMBL2297166], the IC50 is given as 0.12 µM. In the case of FC(F)(F)c1cccc(-c2nn3ncccc3c2-c2ccnc(Nc3ccc4c(c3)OCCO4)n2)c1 [CHEMBL362155], the IC50 is given as […]. For Clc1ccccc1-c1cc(NCOc2cccnc2)n2ncc(Br)c2n1 [CHEMBL398621], the IC50 is given as 0.035 µM. For COc1cccc(Nc2nccc(C3=C(c4ccccc4)NN4C=CC=CC34)n2)c1 (stereo not shown) [CHEMBL403405], the IC50 is given as 0.03 µM. In the case of COc1ccc(-n2cnc3ccc(-c4nnc(SCc5cccc(C(F)(F)F)c5)o4)cc32)cc1 [CHEMBL513570], the IC50 is given as 0.0025 µM.
